Reference: patent US10473640B2, “Drug selection for gastric cancer therapy using antibody-based arrays” (Société des Produits Nestlé S.A., priority 2006, dated 2019)
Each block holds one compound with its values, some of them ahead of it.

Assays:
c-Met [1] = molecular target: T1, c-Met (Homo sapiens, UniProt P08581); test: c-Met activation in HGF-treated A431 cells (proximity assay); assay type: cell-based; settings: A431 epidermoid carcinoma cells, FIG. 3
Procedure: (§1) The slide was incubated for two hours at room temperature. • 4) After six washes with TBS-Tween, 80 μl of detection antibodies for the proximity assay diluted in TBS-Tween/2% BSA/1% FBS was added to the slides. The incubation was for 2 hours at room temperature. • a) As a non-limiting example, the detection antibodies can comprise the following: (i) an anti-c-Met monoclonal antibody that is directly conjugated to glucose oxidase (GO); and (ii) a monoclonal antibody recognizing phosphorylated c-Met that is directly conjugated to horseradish peroxidase (HRP). • b) Alternatively, the detection step can utilize a biotin-conjugate of the monoclonal antibody recognizing phosphorylated c-Met. In these instances, after six washes, an additional sequential step of incubation with streptavidin-HRP for 1 hour is included. • c) Alternatively, the detection step can utilize an oligonucleotide-mediated glucose oxidase (GO) conjugate of the anti-c-Met antibody. […]
(§2) The multiplexed protein microarray platform described herein utilizes the formation of a unique immuno-complex requiring the co-localization of two detector enzyme-conjugated-antibodies once target proteins are captured on the microarray surface. […] The detection and quantification of as few as ˜2-3×10^4 phosphorylation events is routinely achieved by this method, bringing its detection to a “single” cell level. […]

HER2 [2] = test: HER2 activation in HGF-treated A431 cells (proximity assay); assay type: cell-based; settings: A431 epidermoid carcinoma cells, FIG. 3
Procedure: as §1, §2

c-Met [3] = molecular target: T1, c-Met; test: c-Met activation in HGF-treated HCC827 cells (proximity assay); assay type: cell-based; settings: HCC827 lung cancer cells, FIG. 4
Excerpt: (§3) The multiplexed protein microarray platform described herein utilizes the formation of a unique immuno-complex requiring the co-localization of two detector enzyme-conjugated-antibodies once target proteins are captured on the microarray surface. The channeling events between two detector enzymes (glucose oxidase (GO) and horseradish peroxidase (HRP)) in proximity enables the profiling of a receptor tyrosine kinase (RTK) such as c-Met with extreme sensitivity. […] In particular, the multiplexed proximity assay is based on (1) a multiplexed protein microarray platform combined with (2) a triple-antibody-enzyme channeling signal amplification process. The unique and novel design is provided by the triple-antibody enzyme approach that confers ultra-high sensitivity while preserving specificity: • (1) The selected target is captured by target-specific antibodies printed in serial dilutions on a microarray surface. […] The detection and quantification of as few as ˜2-3×10^4 phosphorylation events is routinely achieved by this method, bringing its detection to a “single” cell level. In certain instances, this collaborative immunoassay configuration can be further applied to investigate protein interactions and activations.

HER2 [4] = test: HER2 activation in HGF-treated HCC827 cells (proximity assay); assay type: cell-based; settings: HCC827 lung cancer cells, FIG. 4
Excerpt: as §3

c-Met [5] = molecular target: T1, c-Met; settings: cited from earlier work
human xenograft models = settings: dosed orally; cited from earlier work
[6] = early Phase I; cited from earlier work
[7] = in vivo; cited from earlier work
CYP450 = settings: cited from earlier work

T1 sequence (P08581 25-1390): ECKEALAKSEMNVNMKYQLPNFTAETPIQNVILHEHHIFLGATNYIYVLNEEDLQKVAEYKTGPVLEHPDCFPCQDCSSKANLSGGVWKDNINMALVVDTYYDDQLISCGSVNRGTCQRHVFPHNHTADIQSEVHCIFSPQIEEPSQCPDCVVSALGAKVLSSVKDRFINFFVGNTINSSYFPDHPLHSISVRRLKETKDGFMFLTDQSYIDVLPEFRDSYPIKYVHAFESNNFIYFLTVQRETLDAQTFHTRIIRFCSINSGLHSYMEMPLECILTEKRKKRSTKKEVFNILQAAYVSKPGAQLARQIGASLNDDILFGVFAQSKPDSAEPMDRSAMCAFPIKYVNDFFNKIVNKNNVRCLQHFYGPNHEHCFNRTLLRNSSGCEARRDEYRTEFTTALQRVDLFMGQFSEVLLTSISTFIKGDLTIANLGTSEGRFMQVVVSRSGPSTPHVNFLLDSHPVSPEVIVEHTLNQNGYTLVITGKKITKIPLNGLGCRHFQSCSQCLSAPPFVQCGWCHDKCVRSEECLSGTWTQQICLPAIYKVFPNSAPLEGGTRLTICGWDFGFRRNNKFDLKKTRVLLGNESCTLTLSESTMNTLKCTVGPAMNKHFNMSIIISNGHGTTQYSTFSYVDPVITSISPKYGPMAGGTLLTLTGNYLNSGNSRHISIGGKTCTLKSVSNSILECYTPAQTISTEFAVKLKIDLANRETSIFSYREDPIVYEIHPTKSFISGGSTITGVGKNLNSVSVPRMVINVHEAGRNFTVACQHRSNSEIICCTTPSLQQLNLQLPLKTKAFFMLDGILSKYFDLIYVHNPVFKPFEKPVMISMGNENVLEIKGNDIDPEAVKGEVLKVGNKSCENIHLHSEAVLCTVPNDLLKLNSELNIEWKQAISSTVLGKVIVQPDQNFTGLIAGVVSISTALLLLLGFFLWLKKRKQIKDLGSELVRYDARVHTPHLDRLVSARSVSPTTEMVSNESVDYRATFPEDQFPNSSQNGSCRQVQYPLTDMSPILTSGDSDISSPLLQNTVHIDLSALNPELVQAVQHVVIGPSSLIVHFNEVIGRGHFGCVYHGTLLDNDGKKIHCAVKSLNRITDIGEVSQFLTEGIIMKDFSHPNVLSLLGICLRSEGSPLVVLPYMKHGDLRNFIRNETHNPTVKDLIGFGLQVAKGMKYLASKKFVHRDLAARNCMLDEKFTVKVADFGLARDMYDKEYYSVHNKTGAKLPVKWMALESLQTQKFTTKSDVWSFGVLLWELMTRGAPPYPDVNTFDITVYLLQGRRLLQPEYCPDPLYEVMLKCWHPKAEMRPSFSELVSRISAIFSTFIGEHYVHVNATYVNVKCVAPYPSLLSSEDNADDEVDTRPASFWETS

- c-Met phosphorylation (c-Met [1]): stimulated
- increase of c-Met phosphorylation (c-Met [3]): about 4 fold
Compound: HGF: c-Met ligand, hepatocyte growth factor, a multidomain glycoprotein
- HER2 phosphorylation (HER2 [2]): slightly decreased
- HER2 phosphorylation (HER2 [4]): not affected

Compound: MetMAb: humanized, monovalent, antagonistic anti-c-Met antibody derived from the agonistic monoclonal antibody 5D5
- binding to c-Met (c-Met [5]): high affinity

Compound: Cn1cc(-c2ccc3nnc(Sc4ccc5ncccc5c4)n3n2)cn1 [SGX523]
- antitumor activity (human xenograft models): potent antitumor activity
- toxicity (human xenograft models): no overt toxicity

Compound: CN(C[C@@H]1COCCO1)S(=O)(=O)Nc1ccc2ccc3ncc(-c4cnn(C)c4)cc3c(=O)c2c1 [MK-2461]
- tolerability [6]: well tolerated

Compound: COc1cc2c(Oc3ccc(NC(=O)C4(C(=O)Nc5ccc(F)cc5)CC4)cc3F)ccnc2cc1OCCCN1CCOCC1 [XL880]
- oral bioavailability [7]: good
- CYP450 substrate / inhibitor / inducer (CYP450): substrate, but not an inhibitor or inducer
